Patent publication US20090087845A1, “Genetic Markers Of True Low Birth Weight” (priority 2005, published 2009)

Test system: placental gene expression

SMILES: CCO [alcohol]
- Mean 5%, probe set 1385639_at (5% alcohol group, Mean Contr 4.981165): 4.504
- Mean 5%, Inpp1 (1394340_at) (5% alcohol group, Mean Contr 5.05511): 4.704
- Mean 5%, RT1-Aw2 (1379496_at) (5% alcohol group, Mean Contr 5.19844): 4.65
- Mean 5%, Trp53rk_predicted (1379488_at) (5% alcohol group, Mean Contr 5.228085): 4.923
- Mean 5%, Enpp5 (1388926_at) (5% alcohol group, Mean Contr 5.277582): 4.894
- Mean 5%, Prdm2_mapped (1381229_at) (5% alcohol group, Mean Contr 5.346211): 4.872
- Mean 5%, RGD1564011_predicted (1375191_at) (5% alcohol group, Mean Contr 5.471081): 5.008
- Mean 5%, Centa2 (1369725_at) (5% alcohol group, Mean Contr 5.497342): 5.089
- Mean 5%, Transcribed locus (1383789_at) (5% alcohol group, Mean Contr 5.574571): 5.342
- Mean 5%, Transcribed locus (1392286_at) (5% alcohol group, Mean Contr 5.585624): 5.242
- Mean 5%, Mcpt6 (1387334_at) (5% alcohol group, Mean Contr 5.601581): 5.206
- Mean 5%, Ggps1 (1377866_a_at) (5% alcohol group, Mean Contr 5.646626): 5.273
- Mean 5%, Transcribed locus (1389718_at) (5% alcohol group, Mean Contr 5.751838): 5.09
- Mean 5%, Transcribed locus (1377021_at) (5% alcohol group, Mean Contr 5.80011): 5.149
- Mean 5%, Cp (1368418_a_at) (5% alcohol group, Mean Contr 5.816824): 5.332
- Mean 5%, LOC303515 (1383571_at) (5% alcohol group, Mean Contr 5.867879): 5.339
- Mean 5%, Transcribed locus (1389111_at) (5% alcohol group, Mean Contr 5.875325): 5.42
- Mean 5%, Transcribed locus (1393980_at) (5% alcohol group, Mean Contr 5.991591): 5.335
- Mean 5%, Pcmtd2_predicted (1374454_at) (5% alcohol group, Mean Contr 6.083112): 5.464
- Mean 5%, Plek (1390687_at) (5% alcohol group, Mean Contr 6.105485): 5.536
- Mean 5%, Cdca7 (1374540_at) (5% alcohol group, Mean Contr 6.195992): 5.287
- Mean 5%, Cul2_predicted (1378127_at) (5% alcohol group, Mean Contr 6.258107): 5.629
- Mean 5%, Pex6 (1368264_at) (5% alcohol group, Mean Contr 6.259265): 5.664
- Mean 5%, St3gal3 (1373607_at) (5% alcohol group, Mean Contr 6.298338): 5.956
- Mean 5%, Kbtbd4_predicted (1374614_at) (5% alcohol group, Mean Contr 6.314496): 5.868
- Mean 5%, Phyh (1393245_at) (5% alcohol group, Mean Contr 6.483711): 5.646
- Mean 5%, LOC287533 (1373627_at) (5% alcohol group, Mean Contr 6.526312): 5.83
- Mean 5%, Transcribed locus (1388465_at) (5% alcohol group, Mean Contr 6.549543): 6.133
- Mean 5%, Mss4 (1376745_at) (5% alcohol group, Mean Contr 6.629539): 6.082
- Mean 5%, Plag1 (1391714_at) (5% alcohol group, Mean Contr 6.670053): 5.859
- Mean 5%, Sumf1_predicted (1389833_at) (5% alcohol group, Mean Contr 6.839621): 6.464
- Mean 5%, Polr3e_predicted (1374415_at) (5% alcohol group, Mean Contr 6.849002): 6.356
- Mean 5%, RGD1308959 (1399108_at) (5% alcohol group, Mean Contr 6.859582): 6.437
- Mean 5%, Wig1 (1387021_at) (5% alcohol group, Mean Contr 6.895168): 6.437
- Mean 5%, probe set 1379314_at (5% alcohol group, Mean Contr 6.970231): 6.195
- Mean 5%, Ddx59 (1383635_at) (5% alcohol group, Mean Contr 6.981191): 6.627
- Mean 5%, Rnd3 (1394077_at) (5% alcohol group, Mean Contr 7.018906): 6.516
- Mean 5%, probe set 1393037_at (5% alcohol group, Mean Contr 7.020197): 6.711
- Mean 5%, Slc39a4_predicted (1374366_at) (5% alcohol group, Mean Contr 7.252498): 6.553
- Mean 5%, RGD1305243_predicted (1374076_at) (5% alcohol group, Mean Contr 7.300542): 6.98
- Mean 5%, Transcribed locus (1393310_at) (5% alcohol group, Mean Contr 7.364799): 6.579
- Mean 5%, Gusb (1367901_at) (5% alcohol group, Mean Contr 7.420203): 6.975
- Mean 5%, probe set 1392953_at (5% alcohol group, Mean Contr 7.435411): 6.789
- Mean 5%, Crsp9_predicted (1377263_at) (5% alcohol group, Mean Contr 7.471023): 6.737
- Mean 5%, probe set 1389582_at (5% alcohol group, Mean Contr 7.588214): 6.742
- Mean 5%, Transcribed locus (1393226_at) (5% alcohol group, Mean Contr 7.705027): 6.779
- Mean 5%, RGD1565289_predicted (1375297_at) (5% alcohol group, Mean Contr 7.731478): 6.938
- Mean 5%, Zfp207 (1394591_at) (5% alcohol group, Mean Contr 8.125942): 7.43
- Mean 5%, Akr7a2 (1367843_at) (5% alcohol group, Mean Contr 8.276972): 7.547
- Mean 5%, Tparl (1373392_at) (5% alcohol group, Mean Contr 8.308305): 8.164
- Mean 5%, Mcts1 (1388660_at) (5% alcohol group, Mean Contr 8.623529): 8.191
- Mean 5%, Hadhsc (1370237_at) (5% alcohol group, Mean Contr 8.793343): 8.481
- Mean 5%, Asah1 (1374770_at) (5% alcohol group, Mean Contr 9.074708): 8.62
- Mean 5%, Arts1 (1368356_a_at) (5% alcohol group, Mean Contr 9.55972): 9.182
- Mean 5%, Ndufb5_predicted (1388304_at) (5% alcohol group, Mean Contr 10.12286): 9.747
- Mean 5%, MGC72992 (1389325_at) (5% alcohol group, Mean Contr 10.24563): 9.919
- Mean 5%, Vps35_mapped (1372806_at) (5% alcohol group, Mean Contr 10.46183): 10.13
- Mean 10%, probe set 1385639_at (10% alcohol group, Mean Contr 4.981165): 4.259
- Mean 10%, Inpp1 (1394340_at) (10% alcohol group, Mean Contr 5.05511): 4.269
- Mean 10%, RT1-Aw2 (1379496_at) (10% alcohol group, Mean Contr 5.19844): 4.376
- Mean 10%, Trp53rk_predicted (1379488_at) (10% alcohol group, Mean Contr 5.228085): 4.494
- Mean 10%, Enpp5 (1388926_at) (10% alcohol group, Mean Contr 5.277582): 4.551
- Mean 10%, Prdm2_mapped (1381229_at) (10% alcohol group, Mean Contr 5.346211): 4.661
- Mean 10%, RGD1564011_predicted (1375191_at) (10% alcohol group, Mean Contr 5.471081): 4.639
- Mean 10%, Centa2 (1369725_at) (10% alcohol group, Mean Contr 5.497342): 4.692
- Mean 10%, Transcribed locus (1383789_at) (10% alcohol group, Mean Contr 5.574571): 4.986
- Mean 10%, Transcribed locus (1392286_at) (10% alcohol group, Mean Contr 5.585624): 4.791
- Mean 10%, Mcpt6 (1387334_at) (10% alcohol group, Mean Contr 5.601581): 4.849
- Mean 10%, Ggps1 (1377866_a_at) (10% alcohol group, Mean Contr 5.646626): 4.808
- Mean 10%, Transcribed locus (1389718_at) (10% alcohol group, Mean Contr 5.751838): 4.745
- Mean 10%, Transcribed locus (1377021_at) (10% alcohol group, Mean Contr 5.80011): 4.752
- Mean 10%, Cp (1368418_a_at) (10% alcohol group, Mean Contr 5.816824): 5.05
- Mean 10%, LOC303515 (1383571_at) (10% alcohol group, Mean Contr 5.867879): 5.002
- Mean 10%, Transcribed locus (1389111_at) (10% alcohol group, Mean Contr 5.875325): 4.794
- Mean 10%, Transcribed locus (1393980_at) (10% alcohol group, Mean Contr 5.991591): 4.943
- Mean 10%, Pcmtd2_predicted (1374454_at) (10% alcohol group, Mean Contr 6.083112): 4.612
- Mean 10%, Plek (1390687_at) (10% alcohol group, Mean Contr 6.105485): 4.933
- Mean 10%, Cdca7 (1374540_at) (10% alcohol group, Mean Contr 6.195992): 4.948
- Mean 10%, Cul2_predicted (1378127_at) (10% alcohol group, Mean Contr 6.258107): 5.032
